# Test results taken from patent US20260137819A1 (Radionetics Oncology, Inc., priority 2022, published 2026).
# Biological target: T1, human follicle-stimulating hormone receptor (FSHR) (Homo sapiens, UniProt P23945)
# T1 construct: host or cells: CHO-K1
# T1 sequence (P23945 18-695): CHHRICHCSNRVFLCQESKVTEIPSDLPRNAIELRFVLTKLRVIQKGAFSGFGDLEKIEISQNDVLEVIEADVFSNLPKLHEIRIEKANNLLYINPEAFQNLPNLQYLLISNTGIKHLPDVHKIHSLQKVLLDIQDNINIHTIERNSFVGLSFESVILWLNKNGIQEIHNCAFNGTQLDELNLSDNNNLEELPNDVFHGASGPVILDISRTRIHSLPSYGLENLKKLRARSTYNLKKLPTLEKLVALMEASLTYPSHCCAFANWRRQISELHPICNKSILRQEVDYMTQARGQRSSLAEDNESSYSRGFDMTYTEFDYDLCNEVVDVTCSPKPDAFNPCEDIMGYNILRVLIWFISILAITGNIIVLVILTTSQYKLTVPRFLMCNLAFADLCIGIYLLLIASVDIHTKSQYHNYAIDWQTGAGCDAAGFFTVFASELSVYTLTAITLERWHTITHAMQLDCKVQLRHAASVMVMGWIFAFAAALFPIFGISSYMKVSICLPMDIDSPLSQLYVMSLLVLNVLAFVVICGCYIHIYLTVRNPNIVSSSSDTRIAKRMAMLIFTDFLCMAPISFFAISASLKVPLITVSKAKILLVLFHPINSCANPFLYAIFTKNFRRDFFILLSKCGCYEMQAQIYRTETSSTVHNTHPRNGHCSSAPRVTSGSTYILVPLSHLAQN
# Assay: Measurement of agonist cAMP production by activation of human FSHR
# Assay type: cell-based
# Conditions: CHO-K1 human FSHR cells, 30 minutes at 37° C., HTRF cAMP kit; read-out: hFSHR Agonist cAMP EC50
# Summary of the method: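 cAMP output was measured by HTRF after 30 min at 37 °C agonist exposure (0–10,000 nM final) in stably FSHR-transfected CHO-K1 cells. Lysate cAMP was read off a standard curve and fitted to obtain half-maximal EC50.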
row,Compound,EC50
1,"COc1cc2c(cc1-c1cncc(NC(=O)CCCNC(=O)CCOCCNC(=O)CN3CCN(CC(=O)O)CCN(CC(=O)O)CCN(CC(=O)O)CC3)c1)-c1c(c(C(=O)N3CCOCC3(C)C)nn1-c1cc(F)cc(F)c1)CO2 [Compound 57, 2,2′,2″-(10-(2-((2-(3-((4-((5-(1-(3,5-difluorophenyl)-3-(3,3-dimethylmorpholine-4-carbonyl)-7-methoxy-1,4-dihydrochromeno[4,3-c]pyrazol-8-yl)pyridin-3-yl)amino)-4-oxobutyl)amino)-3-oxopropoxy)ethyl)amino)-2-oxoethyl)-1,4,7,10-tetraazacyclododecane-1,4,7-triyl)triacetic acid--2,2,2-trifluoroacetic acid (1/1)]",10 to 100 nM
2,"COc1cc2c(cc1-c1cncc(NC(=O)CCCNC(=O)[C@H](N)CCCCNC(=O)CN3CCN(CC(=O)O)CCN(CC(=O)O)CCN(CC(=O)O)CC3)c1)-c1c(c(C(=O)N3CCOCC3(C)C)nn1-c1cc(F)cc(F)c1)CO2 [Compound 58, (R)-2,2′,2″-(10-(2-((5-amino-6-((4-((5-(1-(3,5-difluorophenyl)-3-(3,3-dimethylmorpholine-4-carbonyl)-7-methoxy-1,4-dihydrochromeno[4,3-c]pyrazol-8-yl)pyridin-3-yl)amino)-4-oxobutyl)amino)-6-oxohexyl)amino)-2-oxoethyl)-1,4,7,10-tetraazacyclododecane-1,4,7-triyl)triacetic acid--2,2,2-trifluoroacetic acid (1/1)]",10 to 100 nM
3,COc1cc2c(cc1-c1cncc(NC(=O)CN(C)C(=O)CN(C)C(=O)CN(C)C(=O)CN(C)C(=O)CN(C)C(=O)CCNC(=O)CN3CCN(CC(=O)O)CCN(CC(=O)O)CCN(CC(=O)O)CC3)c1)-c1c(c(C(=O)N3CCOCC3(C)C)nn1-c1cc(F)cc(F)c1)CO2 [Compound 59],> 100 nM
4,"COc1cc2c(cc1-c1cncc(NC(=O)CCC(=O)N(CCOCCOCCC(=O)O)C3CCN(C(=O)CN4CCN(CC(=O)O)CCN(CC(=O)O)CCN(CC(=O)O)CC4)CC3)c1)-c1c(c(C(=O)N3CCOCC3(C)C)nn1-c1cc(F)cc(F)c1)CO2 [Compound 60, 2,2′,2″-(10-(2-(4-(N-(2-(2-(2-carboxyethoxy)ethoxy)ethyl)-4-((5-(1-(3,5-difluorophenyl)-3-(3,3-dimethylmorpholine-4-carbonyl)-7-methoxy-1,4-dihydrochromeno[4,3-c]pyrazol-8-yl)pyridin-3-yl)amino)-4-oxobutanamido)piperidin-1-yl)-2-oxoethyl)-1,4,7,10-tetraazacyclododecane-1,4,7-triyl)triacetic acid--formic acid (1/1)]",10 to 100 nM
5,"COc1cc2c(cc1-c1cncc(NC(=O)CNC(=O)CC[C@@H](NC(=O)CN3CCN(CC(=O)O)CCN(CC(=O)O)CCN(CC(=O)O)CC3)C(=O)O)c1)-c1c(c(C(=O)N3CCOCC3(C)C)nn1-c1cc(F)cc(F)c1)CO2 [Compound 61, (R)-2,2′,2″-(10-(2-((1-carboxy-4-((2-((5-(1-(3,5-difluorophenyl)-3-(3,3-dimethylmorpholine-4-carbonyl)-7-methoxy-1,4-dihydrochromeno[4,3-c]pyrazol-8-yl)pyridin-3-yl)amino)-2-oxoethyl)amino)-4-oxobutyl)amino)-2-oxoethyl)-1,4,7,10-tetraazacyclododecane-1,4,7-triyl)triacetic acid]",10 to 100 nM
6,COc1cc2c(cc1-c1cccc(NCCOCCOCCOCCOCCNC(=O)[C@H](CS(=O)(=O)O)NC(=O)CN3CCN(CC(=O)O)CCN(CC(=O)O)CCN(CC(=O)O)CC3)c1)-c1c(c(C(=O)N3CCOCC3(C)C)nn1-c1cc(Cl)cc(Cl)c1)CO2 [Compound 71],< 10 nM
7,COc1cc2c(cc1-c1cccc(OCCCNC(=O)[C@@H](CCCNC(=N)N)NC(=O)CCNC(=O)CN3CCN(CC(=O)O)CCN(CC(=O)O)CCN(CC(=O)O)CC3)c1)-c1c(c(C(=O)N3CCOCC3(C)C)nn1-c1cc(Cl)cc(Cl)c1)CO2 [Compound 73],< 10 nM

# Results, then the compound that gave them:
row,EC50,Compound
1,10 to 100 nM,"COc1cc2c(cc1-c1cncc(NC(=O)CNC(=O)[C@H](CCC(=O)NC[C@H](O)[C@@H](O)[C@H](O)[C@H](O)CO)NC(=O)CN3CCN(CC(=O)O)CCN(CC(=O)O)CCN(CC(=O)O)CC3)c1)-c1c(c(C(=O)N3CCOCC3(C)C)nn1-c1cc(Cl)cc(Cl)c1)CO2 [Compound 56, 2,2′,2″-(10-(2-(((S)-1-((2-((5-(1-(3,5-dichlorophenyl)-3-(3,3-dimethylmorpholine-4-carbonyl)-7-methoxy-1,4-dihydrochromeno[4,3-c]pyrazol-8-yl)pyridin-3-yl)amino)-2-oxoethyl)amino)-1,5-dioxo-5-(((2S,3R,4R,5R)-2,3,4,5,6-pentahydroxyhexyl)amino)pentan-2-yl)amino)-2-oxoethyl)-1,4,7,10-tetraazacyclododecane-1,4,7-triyl)triacetic acid--2,2,2-trifluoroacetic acid (1/1)]"
2,10 to 100 nM,COc1cc2c(cc1-c1cncc(NCCCNC(=O)CCOCCNC(=O)CN3CCN(CC(=O)O)CCN(CC(=O)O)CCN(CC(=O)O)CC3)c1)-c1c(c(C(=O)N3CCOCC3(C)C)nn1-c1cc(F)cc(F)c1)CO2 [Compound 62]
3,10 to 100 nM,"COc1cc2c(cc1-c1cccc(NC(=O)C3CCC(CNC(=O)C(CS(=O)(=O)O)NC(=O)CN4CCN(CC(=O)O)CCN(CC(=O)O)CCN(CC(=O)O)CC4)CC3)c1)-c1c(c(C(=O)N3CCOCC3(C)C)nn1-c1cc(Cl)cc(Cl)c1)CO2 [Compound 65, 2,2′,2″-(10-(2-(((R)-1-((((1r,4R)-4-((3-(1-(3,5-dichlorophenyl)-3-(3,3-dimethylmorpholine-4-carbonyl)-7-methoxy-1,4-dihydrochromeno[4,3-c]pyrazol-8-yl)phenyl)carbamoyl)cyclohexyl)methyl)amino)-1-oxo-3-sulfopropan-2-yl)amino)-2-oxoethyl)-1,4,7,10-tetraazacyclododecane-1,4,7-triyl)triacetic acid]"
4,10 to 100 nM,COc1cc2c(cc1-c1cccc(NC(=O)CN3CCC(NC(=O)[C@H](CS(=O)(=O)O)NC(=O)CN4CCN(CC(=O)O)CCN(CC(=O)O)CCN(CC(=O)O)CC4)CC3)c1)-c1c(c(C(=O)N3CCOCC3(C)C)nn1-c1cc(Cl)cc(Cl)c1)CO2 [Compound 66]
5,< 10 nM,"COc1cc2c(cc1-c1cncc(NCCOCCOCCOCCOCCNC(=O)[C@H](CS(=O)(=O)O)NC(=O)CN3CCN(CC(=O)O)CCN(CC(=O)O)CCN(CC(=O)O)CC3)c1)-c1c(c(C(=O)N3CCOCC3(C)C)nn1-c1cc(Cl)cc(Cl)c1)CO2 [Compound 67, (R)-2,2′,2″-(10-(20-((5-(1-(3,5-dichlorophenyl)-3-(3,3-dimethylmorpholine-4carbonyl)-7-methoxy-1,4-dihydrochromeno|4,3-c|pyrazol-8-yl)pyridin-3-yl)amino)-2,5-dioxo-4-(sulfomethyl)-9,12,15,18-tetraoxa-3,6-diazaicosyl)-1,4,7,10-tetraazacyclododecane-1,4,7-triyl)triacetic acid--2,2,2-trifluoroacetic acid (1/1)]"
6,< 10 nM,"COc1cc2c(cc1-c1cncc(OCCOCCOCCOCCOCCNC(=O)[C@H](CS(=O)(=O)O)NC(=O)CN3CCN(CC(=O)O)CCN(CC(=O)O)CCN(CC(=O)O)CC3)c1)-c1c(c(C(=O)N3CCOCC3(C)C)nn1-c1cc(Cl)cc(Cl)c1)CO2 [Compound 68, (R)-2,2′,2″-(10-(20-((5-(1-(3,5-dichlorophenyl)-3-(3,3-dimethylmorpholine-4carbonyl)-7-methoxy-1,4-dihydrochromeno|4,3-c|pyrazol-8-yl)pyridin-3-yl)oxy)-2,5-dioxo-4-(sulfomethyl)-9,12,15,18-tetraoxa-3,6-diazaicosyl)-1,4,7,10-tetraazacyclododecane-1,4,7-triyl)triacetic acid]"
7,< 10 nM,COc1cc2c(cc1-c1cccc(NC(=O)CCOCCOCCNC(=O)[C@H](CS(=O)(=O)O)NC(=O)CN3CCN(CC(=O)O)CCN(CC(=O)O)CCN(CC(=O)O)CC3)c1)-c1c(c(C(=O)N3CCOCC3(C)C)nn1-c1cc(Cl)cc(Cl)c1)CO2 [Compound 69]
8,10 to 100 nM,"COc1cc2c(cc1-c1cncc(COCCOCCOCCOCCNC(=O)[C@H](CS(=O)(=O)O)NC(=O)CN3CCN(CC(=O)O)CCN(CC(=O)O)CCN(CC(=O)O)CC3)c1)-c1c(c(C(=O)N3CCOCC3(C)C)nn1-c1cc(Cl)cc(Cl)c1)CO2 [Compound 72, (R)-2,2′,2″-(10-(1-(5-(1-(3,5-dichlorophenyl)-3-(3,3-dimethylmorpholine-4carbonyl)-7-methoxy-1,4-dihydrochromeno|4,3-c|pyrazol-8-yl)pyridin-3-yl)-15,18-dioxo-16-(sulfomethyl)-2,5,8,11-tetraoxa-14,17-diazanonadecan-19-yl)-1,4,7,10-tetraazacyclododecane-1,4,7-triyl)triacetic acid]"
